# In ChEMBL document CHEMBL1201862, “PubChem BioAssay data set” (2004):
#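 Briefly, cells in 96-well plates were exposed to five compound concentrations for 48 h, and endpoints were estimated by linear interpolation. GI50 marks 50% less growth.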 Activity calls are given as the source filed them. No stated cut-off is given here; in the data, active = GI50 up to about 1.1 µM and inactive = higher.
# Assays:
# Experiment in all cases: inhibition of tumour cell growth, NCI panel, 48 h
# LXFL 529 = tested on: LXFL 529
# DMS-273 = tested on: DMS-273
# DMS-114 = tested on: DMS-114
# COLO 205 = tested on: COLO 205
# M19-MEL = tested on: M19-MEL
# BT-549 = tested on: BT-549
# Hs-578T = tested on: Hs-578T
smiles,measurement,setting,value
COc1ccc(-c2cc3[nH]nc(N)c3c(=O)o2)cc1,GI50,LXFL 529,> 100 µM (inactive)
same,GI50,DMS-273,> 100 µM (inactive)
same,GI50,DMS-114,72.4 µM (inactive)
same,GI50,COLO 205,> 100 µM (inactive)
O=C1C=C(C2OC(CO)C(O)C2O)C(=O)N1 (configuration not stated),GI50,DMS-273,> 100 µM (inactive)
same,GI50,DMS-114,54.8 µM (inactive)
same,GI50,COLO 205,76.9 µM (inactive)
same,GI50,M19-MEL,> 100 µM (inactive)
C/C(=N\Oc1cc(Cl)ncn1)c1ccccn1,GI50,BT-549,85.3 µM (inactive)
same,GI50,Hs-578T,32.8 µM (inactive)
same,GI50,COLO 205,> 100 µM (inactive)
COC1OC2=CCC3C(=O)NC(=O)C3C2[C@H](OCc2ccccc2)C1OCc1ccccc1 (some centres not stated),GI50,LXFL 529,1.68 µM (inactive)
CC(=O)OCc1nnn2c1CCC2,GI50,LXFL 529,> 100 µM (inactive)
same,GI50,M19-MEL,> 100 µM (inactive)
COc1ccc(CN2C(=O)C(=O)N(C)C2=O)c2ccccc12,GI50,Hs-578T,1.55 µM (inactive)
same,GI50,COLO 205,> 10 µM (inactive)
CCOC(=O)c1csc(NC(=O)CCN2CCCC2)n1,GI50,COLO 205,> 100 µM (inactive)
